Test results published in patent US20200016125A1, “GRANZYME B INHIBITOR COMPOSITIONS AND METHODS FOR THE PREVENTION AND/OR TREATMENT OF SKIN BLISTERING AND/OR PEELING” (The University of British Columbia, priority 2017, published 2020).

How the values were obtained:
GzmB [1] = molecular target: T1, GzmB (Homo sapiens, UniProt P10144); assay: GzmB-mediated cleavage of nidogen-2 with inhibitor (Western Blot); assay type: biochemical; conditions: FIG. 22B; nidogen-2 residues 31-1375, 500 ng, 200 nM purified human GzmB, 100 μM Compound A
T1 construct: purchased EmeraldBio
T1 sequence (P10144 21-247): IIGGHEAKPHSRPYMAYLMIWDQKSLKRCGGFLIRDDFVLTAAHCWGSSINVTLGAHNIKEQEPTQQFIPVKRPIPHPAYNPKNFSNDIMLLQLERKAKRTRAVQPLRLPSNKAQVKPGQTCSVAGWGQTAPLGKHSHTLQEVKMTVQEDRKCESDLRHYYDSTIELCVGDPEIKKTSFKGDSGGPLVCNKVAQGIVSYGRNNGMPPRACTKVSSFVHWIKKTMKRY
Experimental: (§1) For inhibition studies, prior to the addition of substrates to the reaction, GzmB was incubated in the presence of 100 μM Compound A for 1 hour at 37° C. After 24 hours incubation, proteins were denatured, separated on a 4%-20% SDS-PAGE gel (for α6/β4). […] For inhibition studies, prior to the addition of substrates to the reaction, GzmB was incubated in the presence of 100 μM Compound A for 1 hour at 37° C. After 24 hours incubation, nidogen-2 protein was denatured and separated on a 7.5% SDS-PAGE gel. Cleavage was detected by anti-nidogen-2 antibody (R&D Systems). […] For inhibition studies, prior to the addition of substrates to the reaction, GzmB was incubated in the presence of 100 μM Compound A for 1 hour at 37° C. After 24 hours incubation, collagen VII protein was denatured and separated on a 10% SDS-PAGE gel. Cleavage was detected by anti-collagen VII antibody (ABCAM, Toronto, ON).

[2] = tested on: diabetic mouse model, burn injury to induce blistering; assay: Burn injury blistering in diabetic mouse model; assay type: in vivo; conditions: for blistering compared to saline-only treatment: FIG. 8B, 30-day study
Experimental: FIGS. 8A through 8C provide evidence Compound A, a GzmB inhibitor, prevents blistering. Mice were exposed to burn injury by heating a steal rod for 6 seconds to 100° C. to induce blistering. Two independent experiments were run: In FIG. 8A, Compound A was added daily for 30 days. […] In FIG. 8B, Compound A in PBS (3.6 mg/mL) was administered daily by subcutaneous injection and in a gel (3.6 mg/mL) administered daily by topical application.
In this example mice were exposed to burn injury by heating a steal rod for 6 seconds to 100° C. to induce blistering.
There were two separate experiments run. Experiment 1 was a 30-day 3-arm study. Arm 1 consisted of treating the mouse daily with Compound A (3.6 mg/mL) in PBS by subcutaneous injection. In arm 2, Compound A (3.6 mg/mL) was administered to the mouse by daily topical application in the gel. In arm 3, the mouse was administered daily by subcutaneous injection saline as a control.
Experiment 2 was a 25-day 2-arm study. Arm 1 consisted of administering daily, through topical application, Compound A (3.6 mg/mL) in the gel. Arm 2 consisted of administering daily the vehicle gel through topical application as a control.

GzmB [3] = molecular target: T1, GzmB; assay: GzmB cleavage assay of integrin α6/β4 (α6 and β4 sub-units) with GzmB inhibitors; assay type: biochemical
Experimental: as §1
(§2) The recombinant human integrin α6/β4 (α6 a.a. 24-878, β4 a.a. 28-710, R&D Systems, Minneapolis, Minn.), collagen VII (199-482 a.a., MyBiosource, San Diego, Calif.), collagen XVII (a.a. 490-1497, generous gift from Dr. Claus-Werner Franzke), and collagen I (Novus Biologicals, Littleton, Colo.) were incubated for 24 hours at 37° C. in 200 nM purified human GzmB (EmeraldBio, Bainbridge Island, Wash.). For inhibition studies, prior to the addition of substrates to the reaction, GzmB was incubated in the presence of 600 nm serpin A3N (generous gift from Dr. Chris R. Bleackley, University of Alberta, Edmonton, AB, Canada) or 100 NM of the small molecule inhibitor Compound 20 (courtesy of the Centre for Drug Research and Development, Vancouver, BC) for 1 hour at 37° C. […] Cleavage was detected by Western Blot using anti-human integrin α6 sub-unit (ABCAM), anti-human integrin β4 sub-unit (R&D Systems, Minneapolis, Minn.), anti collagen VII (ABCAM), and anti-human collagen XVII (generous gift from Dr. Claus-Werner Franzke) and imaged using a Li-Cor Odissey® FC (Li-Cor, Lincoln, Nebr.). […]

GzmB [4] = molecular target: T1, GzmB; assay: GzmB cleavage assay of collagen VII with GzmB inhibitors (Western Blot); assay type: biochemical; conditions: for inhibition of GzmB-mediated collagen VII cleavage: FIG. 3, collagen VII 500 ng, 200 mM of GzmB, 24 hours 37° C., GzmB incubated with inhibitor 1 hour before substrate
Experimental: (§3) Addition of GzmB inhibitors (Serpin A3N, Compound 20, Compound A) prevented GzmB-mediated collagen VII cleavage. Bands indicating fragments are labeled. GzmB cleavage assay was performed in 40 μL of PBS. Briefly, collagen VII (500 ng) was incubated with […] of GzmB for 24 hours at 37° C. For inhibition, GzmB was incubated with Compound 20, Serpin A3N and Compound A for 1 hour at 37° C. prior to the addition of collagen VII. After 24 hours, all samples were loaded onto a 10% SDS-PAGE, blotted on a PVDF membrane and incubated with a primary antibody specific for collagen VII (rabbit anti-collagen VII, Abcam plc) overnight at 4° C., and then with a secondary labeled anti-rabbit antibody for 1 hour at room temperature.
as §1
as §3, with “A” for “Addition of GzmB inhibitors (Serpin A3N, Compound 20, Compound A) prevented GzmB-mediated collagen VII cleavage. Bands indicating fragments are labeled.”, “hours” for “hours,”, “on” for “on a”
The recombinant human integrin α6/β4 (α6 a.a. 24-878, β4 a.a. 28-710, R&D Systems, Minneapolis, Minn.), collagen VII (199-482 a.a., MyBiosource, San Diego, Calif.), collagen XVII (a.a. 490-1497, generous gift from Dr. Claus-Werner Franzke), and collagen I (Novus Biologicals, Littleton, Colo.) were incubated for 24 hours at 37° C. in 200 nM purified human GzmB (EmeraldBio, Bainbridge Island, Wash.). For inhibition studies, prior to the addition of substrates to the reaction, GzmB was incubated in the presence of 600 nm serpin A3N (generous gift from Dr. Chris R. Bleackley, University of Alberta, Edmonton, AB, Canada) or 100 NM of the small molecule inhibitor Compound 20 (courtesy of the Centre for Drug Research and Development, Vancouver, BC) for 1 hour at 37° C. After the 24 hours incubation, proteins were denatured, separated on a 4-20% (for integrin α6/β4), 10% (for collagen VII), 8-10% (for collagen XVII), or 7.5% (for collagen I) SDS-polyacrylamide gel. Cleavage was detected by Western Blot using anti-human integrin α6 sub-unit (ABCAM), anti-human integrin β4 sub-unit (R&D Systems, Minneapolis, Minn.), anti collagen VII (ABCAM), and anti-human collagen XVII (generous gift from Dr. Claus-Werner Franzke) and imaged using a Li-Cor Odissey® FC (Li-Cor, Lincoln, Nebr.). […]

GzmB [5] = molecular target: T1, GzmB; assay: GzmB-mediated cleavage of collagen XVII with inhibitors (Western Blot); assay type: biochemical; conditions: FIG. 16A, collagen XVII a.a. 490-1497, 200 nM GzmB, pre-incubation with Compound 20 or serpin A3N
Experimental: Black arrow indicates cleavage fragment and * indicates full-length protein. GzmB produces a cleavage band, and this cleavage is abolished by the addition of Com20 or S3AN. […] Dotted lines indicate separation between the epidermis and the dermis. Scale bars represent […].
as §2

Row | Molecule | inhibition of GzmB-mediated cleavage of nidogen-2 (GzmB [1]) | blistering ([2]; FIG. 8A, mice, burn injury, Compound A daily for 30 days versus saline-treated skin) | blistering compared to saline-only treatment ([2]; Compound A in PBS 3.6 mg/mL, daily subcutaneous injection) | blistering compared to saline-only treatment ([2]; Compound A in gel 3.6 mg/mL, daily topical application) | blistering compared to gel alone ([2]; FIG. 8C, Compound A in gel 3.6 mg/mL, daily topical application, 25-day study) | inhibition of GzmB-mediated cleavage of α6β4 integrin (GzmB [3]; FIG. 22A, Coomassie staining, 200 nM purified human GzmB, 100 μM Compound A pre-incubated 1 hour) | inhibition of GzmB-mediated collagen VII cleavage (GzmB [4]) | inhibition of GzmB-mediated cleavage of collagen VII (GzmB [4]; FIG. 22C, collagen VII residues 199-482, 500 ng, 200 nM purified human GzmB, 100 μM Compound A pre-incubated 1 hour) | inhibition of GzmB-mediated cleavage of collagen XVII (NC16 ectodomain) (GzmB [5]) | inhibition of GzmB-mediated cleavage of collagen XVII (NC16 ectodomain) (GzmB [5]; listed as S3AN) | inhibition of GzmB-mediated cleavage of the α6 integrin subunit (GzmB [3]; FIG. 13A, 200 nM GzmB, Western Blot, Compound 20 100 μM, serpin A3N 600 nM) | inhibition of GzmB-mediated cleavage of β4 integrin sub-unit (GzmB [3]; FIG. 14A, 200 nM GzmB, Western Blot, Compound 20 100 μM, serpin A3N 600 nM) | inhibition of GzmB-mediated cleavage of collagen VII (GzmB [4]; FIG. 15A, collagen VII a.a. 199-482, 200 nM purified human GzmB, 24 hours, pre-incubation with 600 nm serpin A3N or 100 NM Compound 20) | inhibition of GzmB-mediated cleavage of collagen VII (GzmB [4]; FIG. 15A, collagen VII a.a. 199-482, 200 nM purified human GzmB, 24 hours, pre-incubation with 600 nm serpin A3N or 100 NM Compound 20, listed as S3AN)
1 | CC[C@H](C)[C@H](NC(=O)CCC(=O)O)C(=O)NCC(=O)N1C(=O)N(C2CCCCC2)C[C@H]1C(=O)NCc1nn[nH]n1 [Compound A, 4-(((2S,3S)-1-((2-((S)-5-(((2H-tetrazol-5-yl)methyl)carbamoyl)-3-cyclohexyl-2-oxoimidazolidin-1-yl)-2-oxoethyl)amino)-3-methyl-1-oxopentan-2-yl)amino)-4-oxobutanoic acid] | this cleavage was prevented | Blistering is prevented | reduce blistering | reduce blistering | reduced blistering | can prevent the cleavage | prevented | this cleavage is prevented |  |  |  |  |  | 
2 | Serpin A3N: an irreversible serine protease inhibitor used as GzmB inhibitor (protein, UniProt Q91WP6 21-418, looked up) Serine protease inhibitor A3N: FPDGTLGMDAAVQEDHDNGTQLDSLTLASINTDFAFSLYKELVLKNPDKNIVFSPLSISAALAVMSLGAKGNTLEEILEGLKFNLTETSEADIHQGFGHLLQRLNQPKDQVQISTGSALFIEKRQQILTEFQEKAKTLYQAEAFTADFQQPRQAKKLINDYVRKQTQGMIKELVSDLDKRTLMVLVNYIYFKAKWKVPFDPLDTFKSEFYAGKRRPVIVPMMSMEDLTTPYFRDEELSCTVVELKYTGNASALFILPDQGRMQQVEASLQPETLRKWKNSLKPRMIDELHLPKFSISTDYSLEDVLSKLGIREVFSTQADLSAITGTKDLRVSQVVHKAVLDVAETGTEAAAATGVKFVPMSAKLYPLTVYFNRPFLIMIFDTETEIAPFIAKIANPK |  |  |  |  |  |  | prevented |  | prevented NC16 cleavage | abolished | prevented the cleavage | prevented the cleavage | prevented the appearance of both ˜20 and 25 kDa bands | abolished
